Data: patent publication US12252490B2, “Inhibiting deubiquitinase USP25 and USP28” (Valo Health, Inc., priority 2018, dated 2025)

These molecules were tested against T1, USP25 (USP25-His6) (Homo sapiens, UniProt Q9UHP3) (assay: Ubiquitin-Rhodamine 110 Assay for USP25 Activity, Example A-2). Conditions: USP25, 75 pM enzyme, 25 nM Ub-Rh110, 30 min preincubation; read-out: Assay A-2 (IC50 range).
T1 construct: His6 (C); purchased Boston Biochem E-546
T1 sequence (Q9UHP3 1-1055): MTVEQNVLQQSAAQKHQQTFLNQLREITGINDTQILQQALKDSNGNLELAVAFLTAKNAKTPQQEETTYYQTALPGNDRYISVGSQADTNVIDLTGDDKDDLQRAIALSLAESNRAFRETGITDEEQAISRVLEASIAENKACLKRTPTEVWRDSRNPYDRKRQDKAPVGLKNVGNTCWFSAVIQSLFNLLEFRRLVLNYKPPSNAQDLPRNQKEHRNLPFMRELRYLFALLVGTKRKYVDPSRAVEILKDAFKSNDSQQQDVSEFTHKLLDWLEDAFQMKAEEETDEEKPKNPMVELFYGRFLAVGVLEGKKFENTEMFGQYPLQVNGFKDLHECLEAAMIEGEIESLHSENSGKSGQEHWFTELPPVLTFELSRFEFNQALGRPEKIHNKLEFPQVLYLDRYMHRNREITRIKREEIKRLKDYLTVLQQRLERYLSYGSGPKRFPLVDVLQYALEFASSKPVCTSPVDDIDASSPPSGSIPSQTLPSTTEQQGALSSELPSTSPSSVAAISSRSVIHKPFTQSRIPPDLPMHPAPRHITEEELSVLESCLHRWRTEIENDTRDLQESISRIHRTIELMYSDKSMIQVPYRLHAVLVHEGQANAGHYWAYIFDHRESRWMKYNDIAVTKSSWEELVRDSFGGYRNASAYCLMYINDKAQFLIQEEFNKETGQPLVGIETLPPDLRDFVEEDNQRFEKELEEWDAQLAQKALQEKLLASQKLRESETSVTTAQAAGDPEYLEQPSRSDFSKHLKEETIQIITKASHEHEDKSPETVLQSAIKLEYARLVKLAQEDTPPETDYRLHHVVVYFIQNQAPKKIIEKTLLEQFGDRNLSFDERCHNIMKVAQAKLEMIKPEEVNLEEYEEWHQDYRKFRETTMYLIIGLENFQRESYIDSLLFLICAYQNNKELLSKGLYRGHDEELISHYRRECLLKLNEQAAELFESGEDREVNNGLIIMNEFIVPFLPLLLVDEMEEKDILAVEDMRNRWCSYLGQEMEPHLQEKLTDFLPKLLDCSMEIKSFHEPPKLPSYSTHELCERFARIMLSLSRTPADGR
Type: biochemical
Method: The assay was performed in a final volume of 9 μL in assay buffer containing 20 mM Tris-HCl (pH 8.0, (1M Tris-HCl, pH 8.0 solution; Corning 46-031-CM)), 3 mM BME (2-Mercaptoethanol; Sigma 63689-25ML-F), 0.03% BGG (0.22 μM filtered, Sigma, G7516-25G), and 0.01% Triton X-100 (Sigma, T9284-10L). Nanoliter quantities of 10-point, 3-fold serial dilution in DMSO was pre-dispensed into 1536 assay plates (Corning, #3724BC) for a final test concentration of 25 μM to 1.3 nM, top to lowest dose, respectively. Enzyme USP25, construct USP25-His6, (Boston Biochem E-546). Concentration and incubation times were optimized for the maximal signal-to-background while maintaining initial velocity conditions at a fixed substrate concentration. The final concentration of the enzyme in the assay was 75 pM. Final substrate (Ub-Rh110; Ubiquitin-Rhodamine 110, R&D Systems #U-555) concentration was 25 nM with [Ub-Rh110]<<Km. 3 μL of 2× enzyme was added to assay plates (pre-stamped with compound) preincubated with […] for 30 minutes and then 3 μL of 2×Ub-Rh110 was added to assay plates. Plates were incubated for 45 minutes at room temperature before addition of 3 μL of stop solution (final concentration of 10 mM citric acid (Sigma, 251275-500G)). Fluorescence was read on the Envision (Excitation at 485 nm and Emission at 535 nm; Perkin Elmer) or on the PheraSTAR (Excitation at 485 nm and Emission at 535 nm; BMG Labtech).
For assay formats Examples A-1a, A-1b, and A-2, data were reported as percent inhibition compared with control wells based on the following equation: % inh=1−((FLU−AveLow)/(AveHigh−AveLow)) where FLU=measured Fluorescence, AveLow=average Fluorescence of no enzyme control (n=16), and AveHigh=average Fluorescence of DMSO control (n=16). IC50 values were determined by curve fitting of the standard 4 parameter logistic fitting algorithm included in the Activity Base software package: IDBS XE Designer Model205. Data is fitted using the Levenburg Marquardt algorithm.

First: CC(C)(O)Cn1ccc2cc(C(=O)NCCc3cc(F)c(N4CC5CCC(C4)N5)cc3F)cnc21 [Example 1-9, N-(4-(3,8-diazabicyclo[3.2.1]octan-3-yl)-2,5-difluorophenethyl)-1-(2-hydroxy-2-methylpropyl)-1H-pyrrolo[2,3-b]pyridine-5-carboxamide]
Second: CCn1ccc2cc(C(=O)NCCc3cc(F)c(N4CC5CCC(C4)N5)cc3F)cnc21 [Example 1-1, N-[2-(4-[3,8-diazabicyclo[3.2.1]octan-3-yl]-2,5-difluorophenyl)ethyl]-1-ethyl-1H-pyrrolo[2,3-b]pyridine-5-carboxamide]
The IC50 of the first is higher: > 10000 nM for the first, 50 to 200 nM for the second.

First: CCn1ccc2cc(C(=O)NC[C@@H](C)c3cc(F)c(N4CCNCC4)cc3F)cnc21 (single isomer, unassigned) [Example 2-1]
Second: CCn1ccc2cc(C(=O)NC[C@H](C)c3cc(F)c(N4CCNCC4)cc3F)cnc21 (single isomer, unassigned) [Example 2-2]
The IC50 of the first is lower: 200 to 2000 nM for the first, 2000 to 10000 nM for the second. The first is the more potent here.

`CCn1ccc2cc(C(=O)NC[C@H](C)c3cc(F)c(N4CC5CCC(C4)N5)cc3F)cnc21` (single isomer, unassigned) [Example 2-3] and `CCn1ccc2cc(C(=O)NC[C@@H](C)c3cc(F)c(N4CC5CCC(C4)N5)cc3F)cnc21` (single isomer, unassigned) [Example 2-4] fall in the same range of IC50: 200 to 2000 nM for the first, 200 to 2000 nM for the second.

Compared with `O=C(NCCc1ccc(N2CCNCC2)cc1)c1cnc2[nH]cc(Cl)c2c1` [Example 3-2, 3-chloro-N-(4-(piperazin-1-yl)phenethyl)-1H-pyrrolo[2,3-b]pyridine-5-carboxamide], `O=C(NCCc1ccc(N2CCNCC2)cc1)c1cnc2[nH]ccc2c1` [Example 1-2, N-(4-(piperazin-1-yl)phenethyl)-1H-pyrrolo[2,3-b]pyridine-5-carboxamide] is lower in IC50: 2000 to 10000 nM for the first, 200 to 2000 nM for the second. The second is the more potent here.

Compared with `CCn1cc(Cl)c2cc(C(=O)NCCc3ccc(N4CCNCC4)cc3)cnc21` [Example 3-1, 3-Chloro-1-ethyl-N-[2-[4-(piperazin-1-yl)phenyl]ethyl]-1H-pyrrolo[2,3-b]pyridine-5-carboxamide], `CCn1ccc2cc(C(=O)NCCc3ccc(N4CCNCC4)cc3)cnc21` [Example 1-4, 1-ethyl-N-(4-(piperazin-1-yl)phenethyl)-1H-pyrrolo[2,3-b]pyridine-5-carboxamide] is higher in IC50: 50 to 200 nM for the first, 200 to 2000 nM for the second. The first is the more potent here.

`CCn1ccc2cc(C(=O)NCCc3cc(F)c(N4CCNCC4)cc3F)cnc21` [Example 1-7, N-(2,5-difluoro-4-(piperazin-1-yl)phenethyl)-1-ethyl-1H-pyrrolo[2,3-b]pyridine-5-carboxamide] and `CCn1ccc2cc(C(=O)NCCc3cc(F)c(N4CC5CCC(C4)N5)cc3F)nnc21` [Example 4-1, N-[2-(4-[3,8-diazabicyclo[3.2.1]octan-3-yl]-2,5-difluorophenyl)ethyl]-7-ethyl-7H-pyrrolo[2,3-c]pyridazine-3-carboxamide] fall in the same range of IC50: 200 to 2000 nM for the first, 200 to 2000 nM for the second.

First: CCn1ccc2cc(C(=O)NCCc3ccc(N4CC5CCC(C4)N5)cc3)cnc21 [Example 1-6, N-(4-(3,8-diazabicyclo[3.2.1]octan-3-yl)phenethyl)-1-ethyl-1H-pyrrolo[2,3-b]pyridine-5-carboxamide]
Second: CCn1ccc2cc(C(=O)NCCc3ccc(N4CC5CCC(C4)N5)c(F)c3)cnc21 [Example 1-10, N-(4-(3,8-diazabicyclo[3.2.1]octan-3-yl)-3-fluorophenethyl)-1-ethyl-1H-pyrrolo[2,3-b]pyridine-5-carboxamide]
The IC50 of the first is lower: 50 to 200 nM for the first, 200 to 2000 nM for the second.

First: CCn1cc(Cl)c2cc(C(=O)NCCc3cc(F)c(N4CC5CCC(C4)N5)cc3F)nnc21 [Example 4-4, N-(4-(3,8-diazabicyclo[3.2.1]octan-3-yl)-2,5-difluorophenethyl)-5-chloro-7-ethyl-7H-pyrrolo[2,3-c]pyridazine-3-carboxamide]
Second: CCn1ccc2cc(C(=O)NC[C@H](C)c3cc(F)c(N4CC5CCC(C4)N5)cc3F)nnc21 (single isomer, unassigned) [Example 4-2]
The IC50 of the first is lower: 50 to 200 nM for the first, 200 to 2000 nM for the second. The first is the more potent here.

First: Nc1c(C(=O)NCCc2ccc(N3CCNCC3)cc2)cnc2[nH]ccc12 [Example 1-5, 4-amino-N-(4-(piperazin-1-yl)phenethyl)-1H-pyrrolo[2,3-b]pyridine-5-carboxamide]
Second: Cn1ccc2cc(C(=O)NCCc3ccc(N4CCNCC4)cc3)cnc21 [Example 1-3, 1-methyl-N-(4-(piperazin-1-yl)phenethyl)-1H-pyrrolo[2,3-b]pyridine-5-carboxamide]
The IC50 of the first is higher: 2000 to 10000 nM for the first, 200 to 2000 nM for the second.

First: O=C(NCCc1ccc(N2CCNCC2)cc1)c1cnc2c(ccn2CC(F)(F)F)c1 [Example 1-8]
Second: CCn1ccc2cc(C(=O)NC[C@@H](C)c3cc(F)c(N4CC5CCC(C4)N5)cc3F)nnc21 (single isomer, unassigned) [Example 4-3]
The IC50 of the first is lower: 50 to 200 nM for the first, 200 to 2000 nM for the second. The first is the more potent here.
